Source: patent US20110118314A1, “PIPERIDINE ANALOGS AS GLYCOGEN SYNTHASE ACTIVATORS” (priority 2009, published 2011)
pEC50: −log10 of the molar value.

Tested on: glycogen synthase
Experiment: Glycogen Synthase (GS) Assay
Format: biochemical
Settings: for pEC50: compound concentration needed to give 50% maximum activation; for GS SC200: compound concentration needed to stimulate 200% of the enzyme activity
Protocol: The following tests were carried out in order to determine the activity of the compounds of formula (I).
Twelve μL per well of substrate solution containing glycogen (4.32 mg/mL), 2.67 mM UDP-glucose, 21.6 mM phospho(enol)pyruvate and 2.7 mM NADH in 30 mM glycylglycine, pH 7.3 buffer was added into a polystyrene 384-well assay plate (BD Biosciences).
Compound solutions (8 μL/well) at various concentrations (0-300 μM) were added to the assay plate (columns 5-24). Compound solution contains 30 mM glycylglycine, pH 7.3, 40 mM KCl, 20 mM MgC12, 9.2% DMSO, with (columns 15-24) or without (columns 5-14) 20 mM glucose 6-phosphate.
Enzyme solution (12 μL/well) containing glycogen synthase (16.88 μg/mL), pyruvate kinase (0.27 mg/mL), lactate dehydrogenase (0.27 mg/mL) in 50 mM Tris-HCl, pH 8.0, 27 mM DTT and bovine serum albumin (BSA, 0.2 mg/mL) was added to the assay plate (columns 3-24). As a blank control, enzyme solution without glycogen synthase was added into the top half wells of columns 1-2. To the bottom half wells of columns 1-2 were added a known activator, glucose 6-phosphate (at final concentration 5 mM) in addition to the enzyme solution. The reaction mixture was incubated at room temperature. The assay plate was then read for absorbance at 340 nm on an Envision reader every 3 minutes up to a total of 15 minutes.
The enzyme activity (with or without compound) was calculated by the reaction rate and represented by the optical density change (SOD) per minute. Percent stimulation of glycogen synthase activity by a compound at various concentrations was calculated by the following formula: […]
where Rs is the reaction rate of the enzyme in the presence of compound and Rt is the reaction rate of the enzyme in the absence of compound.
SC200 is defined as the compound concentration that is needed to stimulate 200% of the enzyme activity. EC50 is defined as the compound concentration that is needed to give 50% maximum activation.
Compounds from Example 1 through Example 36 were assayed according to assay procedures described above and the results are listed in Table 1 below: […]

Row | SMILES | pEC50 | GS SC200 [µM]
1 | COc1cc(F)c(F)cc1-c1ccc(OCC2CCCN(C(=O)C3CN(C(=O)OC(C)(C)C)CC3C(=O)O)C2)cc1 (stereo not drawn) [Example 14, 4-[3-(4′,5′-Difluoro-2′-methoxy-biphenyl-4-yloxymethyl)-piperidine-1-carbonyl]-pyrrolidine-1,3-dicarboxylic acid 1-tert-butyl ester] | 5.43 | 1.94
2 | COc1cc(F)c(F)cc1-c1ccc(OCC2CCCN(C(=O)CC(N)=O)C2)cc1 (stereo not drawn) [Example 20, 3-[3-(4′,5′-Difluoro-2′-methoxy-biphenyl-4-yloxymethyl)-piperidin-1-yl]-3-oxo-propionamide] | 4.89 | 6.34
3 | COc1cc(F)c(F)cc1-c1ccc(OCC2CCCN(C(=O)C(C(=O)O)C(C)(C)C)C2)cc1 (stereo not drawn) [Example 19, 2-[3-(4′,5′-Difluoro-2′-methoxy-biphenyl-4-yloxymethyl)-piperidine-1-carbonyl]-3,3-dimethyl-butyric acid] | 5.27 | 2.21
4 | COc1cc(F)c(F)cc1-c1ccc(OCC2CCCN(C(=O)N(C)CC(=O)O)C2)cc1 (stereo not drawn) [Example 25, {[3-(4′,5′-Difluoro-2′-methoxy-biphenyl-4-yloxymethyl)-piperidine-1-carbonyl]-methyl-amino}-acetic acid] | 6.54 | 0.02
5 | COc1cc(F)c(F)cc1-c1ccc(OCC2CCCN(C(=O)N(C)CC(=O)NS(C)(=O)=O)C2)cc1 (stereo not drawn) [Example 31, 3-(4′,5′-Difluoro-2′-methoxy-biphenyl-4-yloxymethyl)-piperidine-1-carboxylic acid (2-methanesulfonylamino-2-oxo-ethyl)-methyl-amide] | 6.42 | 0.11
6 | COc1cc(F)c(F)cc1-c1ccc(OCC2CCCN(C(=O)CC(=O)NO)C2)cc1 (stereo not drawn) [Example 6, 3-[3-(4′,5′-Difluoro-2′-methoxy-biphenyl-4-yloxymethyl)-piperidin-1-yl]-N-hydroxy-3-oxo-propionamide] | 5.26 | 2.37
7 | COc1cc(F)c(F)cc1-c1ccc(OCC2CCCN(C(N)=O)C2)cc1 (stereo not drawn) [Example 9, 3-(4′,5′-Difluoro-2′-methoxy-biphenyl-4-yloxymethyl)-piperidine-1-carboxylic acid amide] | 5.20 | 2.22
8 | COc1cc(F)c(F)cc1-c1ccc(OCC2CCCN(C(=O)[C@H](C)CC(=O)O)C2)cc1 (stereo partly drawn) [Example 8, (R)(+)-4-[3-(4′,5′-Difluoro-2′-methoxy-biphenyl-4-yloxymethyl)-piperidin-1-yl]-3-methyl-4-oxo-butyric acid] | 5.10 | 2.35
9 | COc1cc(F)c(F)cc1-c1ccc(OCC2CCCN(C(=O)C3(C(=O)O)CC3)C2)cc1 (stereo not drawn) [Example 1, 1-[3-(4′,5′-Difluoro-2′-methoxy-biphenyl-4-yloxymethyl)-piperidine-1-carbonyl]-cyclopropanecarboxylic acid] | 5.47 | 1.1
10 | COc1cc(F)c(F)cc1-c1ccc(OCC2CCCN(C(=O)C(C)C(=O)O)C2)cc1 (stereo not drawn) [Example 17, 3-[3-(4′,5′-Difluoro-2′-methoxy-biphenyl-4-yloxymethyl)-piperidin-1-yl]-2-methyl-3-oxo-propionic acid] | 6.17 | 0.29
11 | COc1cc(F)c(F)cc1-c1ccc(OCC2CCCN(C(=O)N(CC(=O)O)Cc3ccccc3)C2)cc1 (stereo not drawn) [Example 22, {Benzyl-[3-(4′,5′-difluoro-2′-methoxy-biphenyl-4-yloxymethyl)-piperidine-1-carbonyl]-amino}-acetic acid] | 5.58 | 0.12
12 | COc1cc(F)c(F)cc1-c1ccc(OCC2CCN(C(=O)N(CCC(=O)O)Cc3ccccc3)C2)cc1 (stereo not drawn) [Example 29, 3-{Benzyl-[3-(4′,5′-difluoro-2′-methoxy-biphenyl-4-yloxymethyl)-pyrrolidine-1-carbonyl]-amino}-propionic acid] | 4.98 | 2.55
13 | COc1cc(F)c(F)cc1-c1ccc(OCC2CCN(C(=O)N(C)CC(=O)NS(C)(=O)=O)C2)cc1 (stereo not drawn) [Example 36, 3-(4′,5′-Difluoro-2′-methoxy-biphenyl-4-yloxymethyl)-pyrrolidine-1-carboxylic acid (2-methanesulfonylamino-2-oxo-ethyl)-methyl-amide] | 5.11 | 0.8
14 | COc1cc(F)c(F)cc1-c1ccc(OCC2CCCN(C(=O)N(CC(=O)NS(C)(=O)=O)Cc3ccccc3)C2)cc1 (stereo not drawn) [Example 34, 3-(4′,5′-Difluoro-2′-methoxy-biphenyl-4-yloxymethyl)-piperidine-1-carboxylic acid benzyl-(2-methanesulfonylamino-2-oxo-ethyl)-amide] | 6.28 | 0.07
15 | COc1cc(F)c(F)cc1-c1ccc(OCC2CCCN(C(=O)N(C)Cc3nnn[nH]3)C2)cc1 (stereo not drawn) [Example 30, 3-(4′,5′-Difluoro-2′-methoxy-biphenyl-4-yloxymethyl)-piperidine-1-carboxylic acid methyl-(1H-tetrazol-5-ylmethyl)-amide] | 5.08 | 1.38
16 | COc1cc(F)c(F)cc1-c1ccc(OCC2CCN(C(=O)N(CC(=O)NS(C)(=O)=O)Cc3ccccc3)C2)cc1 (stereo not drawn) [Example 35, 3-(4′,5′-Difluoro-2′-methoxy-biphenyl-4-yloxymethyl)-pyrrolidine-1-carboxylic acid benzyl-(2-methanesulfonylamino-2-oxo-ethyl)-amide] | 6.09 | 0.28
17 | COc1cc(F)c(F)cc1-c1ccc(OCC2CCCN(C(=O)[C@@H](CC(=O)O)NC(=O)OC(C)(C)C)C2)cc1 (stereo partly drawn) [Example 10, (R)-3-tert-Butoxycarbonylamino-4-[3-(4′,5′-difluoro-2′-methoxy-biphenyl-4-yloxymethyl)-piperidin-1-yl]-4-oxo-butyric acid] | 5.24 | 1.51
18 | COc1cc(F)c(F)cc1-c1ccc(OC[C@@H]2CCCN(C(=O)CC(=O)O)C2)cc1 (single isomer, unassigned) [Example 4] | 5.76 | 1.18
19 | CCC(C(=O)O)C(=O)N1CCCC(COc2ccc(-c3cc(F)c(F)cc3OC)cc2)C1 (stereo not drawn) [Example 18, 2-[3-(4′,5′-Difluoro-2′-methoxy-biphenyl-4-yloxymethyl)-piperidine-1-carbonyl]-butyric acid] | 6.01 | –
20 | COc1cc(F)c(F)cc1-c1ccc(OCC2CCCN(C(=O)C3CN(C(N)=O)CC3C(=O)O)C2)cc1 (stereo not drawn) [Example 16, 1-Carbamoyl-4-[3-(4′,5′-difluoro-2′-methoxy-biphenyl-4-yloxymethyl)-piperidine-1-carbonyl]-pyrrolidine-3-carboxylic acid] | 5.19 | 0.42
21 | COc1cc(F)c(F)cc1-c1ccc(OCC2CCCN(C(=O)[C@H](CC(=O)O)NC(=O)OC(C)(C)C)C2)cc1 (stereo partly drawn) [Example 12, (S)-3-tert-Butoxycarbonylamino-4-[3-(4′,5′-difluoro-2′-methoxy-biphenyl-4-yloxymethyl)-piperidin-1-yl]-4-oxo-butyric acid] | 4.96 | 3.74
22 | COc1cc(F)c(F)cc1-c1ccc(OCC2CCCN(C(=O)[C@H]3CCC[C@@H]3C(=O)O)C2)cc1 (stereo in doubt) [Example 7, 2-[3-(4′,5′-Difluoro-2′-methoxy-biphenyl-4-yloxymethyl)-piperidine-1-carbonyl]-cyclopentanecarboxylic acid] | 5.20 | 1.55
23 | COc1cc(F)c(F)cc1-c1ccc(OCC2CCCN(C(=O)CC(=O)O)C2)cc1 (stereo not drawn) [Example 2, 3-[3-(4′,5′-Difluoro-2′-methoxy-biphenyl-4-yloxymethyl)-piperidin-1-yl]-3-oxo-propionic acid] | 6.29 | 0.05
24 | COc1cc(F)c(F)cc1-c1ccc(OCC2CCCN(C(=O)C3CN(C(C)=O)CC3C(=O)O)C2)cc1 (stereo not drawn) [Example 15, 1-Acetyl-4-[3-(4′,5′-difluoro-2′-methoxy-biphenyl-4-yloxymethyl)-piperidine-1-carbonyl]-pyrrolidine-3-carboxylic acid] | 5.24 | 3.65
25 | COc1cc(F)c(F)cc1-c1ccc(OCC2CCCN(C(=O)[C@@H](CC(=O)O)NC(C)=O)C2)cc1 (stereo partly drawn) [Example 11, (R)-3-Acetylamino-4-[3-(4′,5′-difluoro-2′-methoxy-biphenyl-4-yloxymethyl)-piperidin-1-yl]-4-oxo-butyric acid] | 5.71 | 0.42
26 | COc1cc(F)c(F)cc1-c1ccc(OC[C@@H]2CCCN(C(=O)N(C)CC(=O)NS(C)(=O)=O)C2)cc1 [Example 33, (R)-3-(4′,5′-Difluoro-2′-methoxy-biphenyl-4-yloxymethyl)-piperidine-1-carboxylic acid (2-methanesulfonylamino-2-oxo-ethyl)-methyl-amide] | 5.69 | 0.41
